O=C(O)c1cc(O)c(O)c(O)c1
solubility (mole fraction) (in acetonitrile, 293.15 K): 0.0274
solubility (mole fraction) (in acetonitrile, 298.15 K): 0.0341
solubility (mole fraction) (in acetonitrile, 303.15 K): 0.0355
solubility (mole fraction) (in acetonitrile, 308.15 K): 0.0378
solubility (mole fraction) (in acetonitrile, 313.15 K): 0.0391
solubility (mole fraction) (in acetonitrile, 318.15 K): 0.0405
solubility (mole fraction) (in isopropanol, 293.15 K): 0.028
solubility (mole fraction) (in isopropanol, 298.15 K): 0.0348
solubility (mole fraction) (in isopropanol, 303.15 K): 0.0362
solubility (mole fraction) (in isopropanol, 308.15 K): 0.0386
solubility (mole fraction) (in isopropanol, 313.15 K): 0.04
solubility (mole fraction) (in isopropanol, 318.15 K): 0.0409
solubility (mole fraction) (in n-propanol, 293.15 K): 0.0332
solubility (mole fraction) (in n-propanol, 298.15 K): 0.0413
solubility (mole fraction) (in n-propanol, 303.15 K): 0.0429
solubility (mole fraction) (in n-propanol, 308.15 K): 0.0458
solubility (mole fraction) (in n-propanol, 313.15 K): 0.0474
solubility (mole fraction) (in n-propanol, 318.15 K): 0.0486
solubility (mole fraction) (in water, 293.15 K): 0.00127
solubility (mole fraction) (in water, 298.15 K): 0.00148
solubility (mole fraction) (in water, 303.15 K): 0.00204
solubility (mole fraction) (in water, 308.15 K): 0.00252
solubility (mole fraction) (in water, 313.15 K): 0.0032
solubility (mole fraction) (in water, 318.15 K): 0.0038
